Blank lines part the entries; values can stand above or below the compound they belong to.
Experiments:
[1] = molecular target: T1, human tyrosinase enzyme (Homo sapiens, UniProt P14679); experiment: Tyrosinase inhibition assay (melanocyte lysate, L-DOPA/MBTH); format: biochemical
T1 construct: Human neonatal darkly pigmented melanocytes lysate was used as a source of tyrosinase enzyme; host or cells: human neonatal darkly pigmented melanocytes (crude NP-40 lysate supernatant)
T1 sequence (P14679 19-529): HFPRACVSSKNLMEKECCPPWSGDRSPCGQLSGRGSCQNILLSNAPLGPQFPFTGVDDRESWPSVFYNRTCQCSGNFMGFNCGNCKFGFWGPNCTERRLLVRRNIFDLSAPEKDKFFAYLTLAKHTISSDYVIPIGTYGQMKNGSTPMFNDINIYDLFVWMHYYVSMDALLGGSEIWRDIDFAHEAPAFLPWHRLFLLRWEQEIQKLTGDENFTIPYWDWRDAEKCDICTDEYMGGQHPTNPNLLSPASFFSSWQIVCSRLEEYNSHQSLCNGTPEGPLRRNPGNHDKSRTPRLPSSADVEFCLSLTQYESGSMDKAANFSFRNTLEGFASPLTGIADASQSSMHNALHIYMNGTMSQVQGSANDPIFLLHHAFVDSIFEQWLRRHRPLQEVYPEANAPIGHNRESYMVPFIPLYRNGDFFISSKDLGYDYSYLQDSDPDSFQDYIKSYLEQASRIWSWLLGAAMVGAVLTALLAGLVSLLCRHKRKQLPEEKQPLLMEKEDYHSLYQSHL
Description: Human neonatal darkly pigmented melanocytes lysate was used as a source of tyrosinase enzyme. The human melanocyte cells were purchased from Cascade Biologics (Code: C-202-5C) and cultured using standard methods. A confluent 25 cm^2 flask of melanocytes was washed with 2 ml of ice-cold PBS (phosphate buffered saline), followed by incubation with 1 ml of (0.025% w/v) Trypsin (0.01% w/v) EDTA (ethylenediamine tetraacetic acid) solution for 2 minutes at 37° C. to release the adherent cells. Trypsin was neutralized by the addition of 3 ml ‘neutralizer’ solution (sterile PBS solution containing 0.5% w/vnewborn bovine serum). […] The protein content in the lysate was measured by the Bradford reagent method (bovine serum albumin standard). […]
The solution phase tyrosinase activity assay was initiated by mixing 50 μl of 50 mM potassium phosphate buffer (pH 6.8), 60 μl of 10 mM MBTH (3-Methyl-2-benzothiazolinonhydrazon hydrochloride hydrate) in 10 mM potassium phosphate buffer, 30 μl of 10 mM L-DOPA (L-3,4-dihydroxyphenylalanine) in 10 mM potassium phosphate buffer, 4 μl of melanocytic cell extract (about 2 μg/μl protein), and 6 μl of distilled water (to make up the volume to 150 μl), and incubated for about 1 hour at 37° C. […] Then 200 μl of the supernatant was transferred to a 96-well flat-bottom plate, and the OD (optical density) read in a TECAN plate-reader (540 nm transmission). […]

[2] = system: Melanoderm cultures (human keratinocytes and melanocytes), melanin production; experiment: Assay of pigment production by Living Skin Equivalents (Melanoderm); format: cell-based; set-up: inhibition: dose or concentration left out as unconfirmed; conditions: 14 days, melanin normalized to protein levels; for % inhibition of melanin production compared to vehicle control: 10 μM; for inhibition: Homo sapiens, 336 h, read-out: % inhibition of melanin production compared to vehicle control
Description: Assay of pigment production by Living Skin Equivalents (Melanoderms™)
So called reconstructed pigmented ‘skin’ cultures containing keratinocytes and melanocytes are commercially available and, for example, can be purchased from MatTek Corp, 200, Homer Avenue, Ashland, Mass., USA, under the trade name Melanoderm™. Melanoderms™ (catalogue reference MEL-300) containing melanocytes from […] donor skin were maintained in EPI-100-NMM113 media following the manufacturer's instructions and using standard methods for the maintenance of cultured mammalian cells under aseptic conditions. The Melanoderm™ cultures were treated with test agents for a total of 14 days. During the 14 day culture period the melanocytes in the Melanoderm™ cultures synthesise melanin in specialised vesicular structures called melanosomes. The pigmented melanosomes are transferred to the adjacent keratinocytes and the transferred-melanosomes tend to accumulate over the nucleus of the keratinocytes. This process is the same as occurs in skin in vivo and accordingly the Melanoderm™ culture is considered to be a very good test ‘skin tissue’ to mimic the effect of the skin pigmentation process in vivo. A compound that leads to a reduction in melanin production in the Melanoderm™ culture over 14 days by 10% or more is considered to have a positive pigment reducing effect. It is important that the reduction in pigment occurs without substantive loss of cell viability such that the inhibitory effect of the test compound is due to its biological function rather than due to cell toxicity.
Culture media changes and re-dosing of compounds at selected concentrations took place every 2 or 3 days during the test period. Melanoderm™ cultures were also treated with control materials including the vehicle (dimethylsulphoxide (DMSO)) used to dissolve the test material and a positive control material known to lead to the synthesis of reduced amounts of melanin in the cultures. 4-ethylresorcinol was used as a positive control. After 14 days culture, transmitted-light microscopy images were captured for every culture using a Leica DM IL microscope at ×20 magnification.
The cell viability of the cultures was assessed using the so called WST-1 (Water Soluble Tetrazolium Salt-1) assay purchased from Roche Applied Science and following the manufacturer's instructions. The stable tetrazolium salt WST-1 is cleaved to a soluble formazan dye by a complex cellular mechanism that occurs primarily at the cell surface. This bioreduction is largely dependent on the glycolytic production of NADPH in viable cells. Therefore, the amount of soluble formazan dye formed in the culture medium directly correlates to the number of metabolically active cells in the culture. Cultures were incubated with WST-1 in the medium for 1 hour and production of formazan measured at 450 nm using a spectrophotometer plate reader, e.g. a BMG Labtech FLUOstar plate reader. Cultures were considered ‘viable’ if they generated greater than 80% of the control value of formazan product. Subsequently the culture was washed briefly in phosphate buffer solution (PBS) and total melanin and protein extracted together from each culture using 250 μl Solvable™ (Perkin Elmer product 6NE9100) reagent at 60° C. overnight as recommended by the manufacturer. The total protein content using a sample of the extracts was determined using the so called BCA (bicinchoninic acid) assay. The BCA assay may be purchased from Pierce Chemical Company and conducted following the manufacturer's instructions. Melanin was determined by measuring the absorbance at 485 nm, for example using a BMG Labtech FLUOstar plate reader. The amount of melanin extracted from each culture was determined by reference to a standard synthetic-melanin curve (Sigma Aldrich Chemical Company catalogue reference M8631). […]

inhibition at 10 µM [1]: 29%
SMILES: CCc1ccc(O)cc1O [4-ethyl resorcinol]

SMILES: O=C(COc1ccccc1)NC(=S)Nc1ccc(I)cn1 [NC-0475, N-[[(5-iodo-2-pyridinyl)-amino]-thioxomethyl]-2-phenoxyacetamide]
% inhibition of melanin production compared to vehicle control [2]: 53%
inhibition [2]: > 50%

SMILES: O=C(COc1ccccc1)NC(=S)Nc1ccc(Cl)cn1 [S12, N-[[(5-chloro-2-pyridinyl)-amino]-thioxomethyl]-2-phenoxyacetamide]
% inhibition of melanin production compared to vehicle control [2]: 47%
inhibition [2]: 40 to 50%

SMILES: Cc1ccc(OCC(=O)NC(=S)Nc2ccc(Cl)cn2)cc1 [S13, N-[[(5-chloro-2-pyridinyl)-amino]-thioxomethyl]-2-(4-methylphenoxy)-acetamide]
% inhibition of melanin production compared to vehicle control [2]: 35%
inhibition [2]: 30 to 40%

SMILES: O=C(COc1ccccc1)NC(=S)Nc1ccccn1 [S14, N-[[2-pyridinylamino]-thioxomethyl]-2-phenoxyacetamide]
inhibition [2]: 10%

SMILES: Cc1cc(OCC(=O)NC(=S)Nc2ccc(I)cn2)cc(C)c1Cl [S15, N-[[(5-iodo-2-pyridinyl)-amino]-thioxomethyl]-2-(4-chloro-3,5-dimethylphenoxy)-acetamide]
% inhibition of melanin production compared to vehicle control [2]: 43%
inhibition [2]: 40 to 50%

SMILES: CC(C)c1ccc(OCC(=O)NC(=S)Nc2ccc(Cl)cn2)cc1 [S16, N-[[(5-chloro-2-pyridinyl)-amino]-thioxomethyl]-2-[4-(1-methylethyl)-phenoxy]-acetamide]
% inhibition of melanin production compared to vehicle control [2]: 38%
inhibition [2]: 30 to 40%

SMILES: O=C(COc1ccc(Cl)cc1Cl)NC(=S)Nc1ccc(I)cn1 [S17, N-[[(5-iodo-2-pyridinyl)-amino]-thioxomethyl]-2-(2,4-dichlorophenoxy)-acetamide]
% inhibition of melanin production compared to vehicle control [2]: 43%
inhibition [2]: 40 to 50%

SMILES: O=C(COc1ccc(Cl)cc1)NC(=S)Nc1ccc(I)cn1 [S18, N-[[(5-iodo-2-pyridinyl)-amino]-thioxomethyl]-2-(4-chlorophenoxy)-acetamide]
% inhibition of melanin production compared to vehicle control [2]: 28%
inhibition [2]: 20 to 30%

SMILES: CC(C)(C)c1ccc(OCC(=O)NC(=S)Nc2ccc(I)cn2)cc1 [S19, N-[[(5-iodo-2-pyridinyl)-amino]-thioxomethyl]-2-[4-(1,1-dimethylethyl)phenoxy]-acetamide]
% inhibition of melanin production compared to vehicle control [2]: 22%
inhibition [2]: 20 to 30%

SMILES: Cc1cccc(OCC(=O)NC(=S)Nc2ccc(I)cn2)c1 [S20, N-[[(5-iodo-2-pyridinyl)-amino]-thioxomethyl]-2-(3-methylphenoxy)-acetamide]
% inhibition of melanin production compared to vehicle control [2]: 22%
inhibition [2]: 20 to 30%

SMILES: Cc1nc(NC(=S)NC(=O)COc2ccccc2)ccc1I [S21, N-[[(5-iodo-6-methyl-2-pyridiny)lamino]-thioxomethyl]-2-phenoxyacetamide]
% inhibition of melanin production compared to vehicle control [2]: 39%
inhibition [2]: 30 to 40%

From US20160243015A1, “SKIN LIGHTENING COMPOSITION” (Conopco, Inc., d/b/a UNILEVER, priority 2013, published 2016)
